Where “and” joins values, the source holds several entries; their conditions need not be identical. Identical values can stand only once. Toxic doses and inconclusive results are not listed. Rule as the data show it: active = T/C of 150% or more; inactive = T/C below 125%.
Test system: L1210 leukemia ip in BDF1 mice, survival T/C
Test: NCI In Vivo Anticancer Drug Screen. Data for tumor model L1210 Leukemia (intraperitoneal) in B6D2F1 (BDF1) mice
Conditions: endpoint: mean survival time, higher = longer survival
How it was run: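 Value reflects the ratio of survival in compound-treated mice to survival in vehicle-treated controls, with both groups carrying the same transplanted tumor.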

[1] = dose: 100.0 mg/kg/injection, schedule: Q01DX009 (ip), vehicle: saline
[2] = dose: 100.0 mg/kg/injection, schedule: Q04DX003 (ip), vehicle: saline
[3] = dose: 200.0 mg/kg/injection, schedule: Q01DX009 (ip), vehicle: saline
[4] = dose: 200.0 mg/kg/injection, schedule: Q04DX003 (ip), vehicle: saline
[5] = dose: 400.0 mg/kg/injection, schedule: Q04DX003 (ip), vehicle: saline
[6] = dose: 100.0 mg/kg/injection, schedule: Q04DX003 (ip), vehicle: saline with Tween-80
[7] = dose: 200.0 mg/kg/injection, schedule: Q04DX003 (ip), vehicle: saline with Tween-80
[8] = dose: 400.0 mg/kg/injection, schedule: Q04DX003 (ip), vehicle: saline with Tween-80
[9] = dose: 100.0 mg/kg/injection, schedule: Q01DX009 (ip), vehicle: saline with Tween-80
[10] = dose: 200.0 mg/kg/injection, schedule: Q01DX009 (ip), vehicle: saline with Tween-80
[11] = dose: 400.0 mg/kg/injection, schedule: Q01DX009 (ip), vehicle: saline with Tween-80
[12] = dose: 100.0 mg/kg/injection, schedule: Q01DX001 (ip), vehicle: Klucel (hydroxypropylcellulose) (HPC)
[13] = dose: 100.0 mg/kg/injection, schedule: Q04DX003 (ip), vehicle: Klucel (hydroxypropylcellulose) (HPC)
[14] = dose: 200.0 mg/kg/injection, schedule: Q01DX001 (ip), vehicle: Klucel (hydroxypropylcellulose) (HPC)
[15] = dose: 200.0 mg/kg/injection, schedule: Q04DX003 (ip), vehicle: Klucel (hydroxypropylcellulose) (HPC)
[16] = dose: 400.0 mg/kg/injection, schedule: Q01DX001 (ip), vehicle: Klucel (hydroxypropylcellulose) (HPC)
[17] = dose: 400.0 mg/kg/injection, schedule: Q04DX003 (ip), vehicle: Klucel (hydroxypropylcellulose) (HPC)
[18] = dose: 100.0 mg/kg/injection, schedule: Q01DX001 (ip), vehicle: saline
[19] = dose: 200.0 mg/kg/injection, schedule: Q01DX001 (ip), vehicle: saline
[20] = dose: 400.0 mg/kg/injection, schedule: Q01DX001 (ip), vehicle: saline
[21] = dose: 25.0 mg/kg/injection, schedule: Q01DX009 (ip), vehicle: saline
[22] = dose: 50.0 mg/kg/injection, schedule: Q01DX009 (ip), vehicle: saline
[23] = dose: 50.0 mg/kg/injection, schedule: Q04DX003 (ip), vehicle: saline
[24] = dose: 100.0 mg/kg/injection, schedule: Q04DX002 (ip), vehicle: Klucel (hydroxypropylcellulose) (HPC)
[25] = dose: 200.0 mg/kg/injection, schedule: Q04DX002 (ip), vehicle: Klucel (hydroxypropylcellulose) (HPC)
[26] = dose: 100.0 mg/kg/injection, schedule: Q01DX009 (ip), vehicle: Klucel (hydroxypropylcellulose) (HPC)
[27] = dose: 200.0 mg/kg/injection, schedule: Q01DX009 (ip), vehicle: Klucel (hydroxypropylcellulose) (HPC)

Measured: T/C

CCn1c(O)c(C=N)c(=O)[nH]c1=O
inactive: [1] 96 % of control | [2] 88 % of control | [3] 93 % of control | [4] 95 % of control | [5] 90 % of control

CCCCCC(=O)NCC(=O)O
inactive: [6] 94 % of control | [7] 97 % of control | [8] 94 % of control

Cc1c(Cl)cccc1NC(=O)NCCc1ccccc1
inactive: [9] 94 % of control and 101 % of control | dose: 100.0 mg/kg/injection, schedule: Q04DX002 (ip), vehicle: saline with Tween-80 100 % of control and 103 % of control | [6] 100 % of control | [10] 101 % of control and 104 % of control | dose: 200.0 mg/kg/injection, schedule: Q04DX002 (ip), vehicle: saline with Tween-80 93 % of control and 97 % of control | [7] 101 % of control | [11] 100 % of control and 101 % of control | dose: 400.0 mg/kg/injection, schedule: Q04DX002 (ip), vehicle: saline with Tween-80 96 % of control and 97 % of control | [8] 101 % of control

Cc1c(N)c(C)c(-c2c(O)c(Br)c(C)c(O)c2Br)c(C)c1Br
inactive: [12] 93 % of control | [13] 102 % of control | [14] 98 % of control | [15] 96 % of control | [16] 87 % of control | [17] 94 % of control

C=C1CC2CC(C)CCC2OC1=O (stereo not given)
inactive: [18] 102 % of control | [19] 98 % of control | [20] 98 % of control

O=C(O)C(O)CBr (stereo not given)
inactive: dose: 12.5 mg/kg/injection, schedule: Q01DX009 (ip), vehicle: saline with Tween-80 103 % of control | dose: 25.0 mg/kg/injection, schedule: Q01DX009 (ip), vehicle: saline with Tween-80 95 % of control | dose: 50.0 mg/kg/injection, schedule: Q01DX009 (ip), vehicle: saline with Tween-80 98 % of control

CCOP(=O)(OCC)C(c1ccccc1)C(c1ccccc1)c1ccccc1 (stereo not given)
inactive: dose: 100.0 mg/kg/injection, schedule: Q04DX003 (ip), vehicle: other 97 % of control | dose: 200.0 mg/kg/injection, schedule: Q04DX003 (ip), vehicle: other 93 % of control | dose: 400.0 mg/kg/injection, schedule: Q04DX003 (ip), vehicle: other 101 % of control

Cc1cnc(NCCCC(N)C(=O)O)nc1 (stereo not given)
inactive: dose: 100.0 mg/kg/injection, schedule: Q04DX002 (ip), vehicle: saline 95 % of control | dose: 200.0 mg/kg/injection, schedule: Q04DX002 (ip), vehicle: saline 95 % of control

O=C1C2C3CC4C2C(=O)C2C1C3C42 (stereo not given)
inactive: dose: 75.0 mg/kg/injection, schedule: Q01DX001 (ip), vehicle: other 101 % of control | [1] 97 % of control | [2] 94 % of control | dose: 150.0 mg/kg/injection, schedule: Q01DX001 (ip), vehicle: other 101 % of control | [3] 94 % of control | [4] 104 % of control | dose: 300.0 mg/kg/injection, schedule: Q01DX001 (ip), vehicle: other 93 % of control | dose: 400.0 mg/kg/injection, schedule: Q01DX009 (ip), vehicle: saline 104 % of control | [5] 91 % of control

O=S(=O)(Nc1ccc(NS(=O)(=O)c2ccccc2)c(S(=O)(=O)c2ccccc2)c1)c1ccccc1
inactive: [9] 100 % of control | [10] 98 % of control | [11] 94 % of control

CC(C)NNC(=O)C(C)N (stereo not given)
inactive: dose: 12.5 mg/kg/injection, schedule: Q01DX009 (ip), vehicle: saline 87 % of control | [21] 90 % of control | dose: 25.0 mg/kg/injection, schedule: Q04DX003 (ip), vehicle: saline 89 % of control | [22] 92 % of control | [23] 103 % of control | [1] 92 % of control | [2] 89 % of control | [3] 93 % of control | [4] 86 % of control

Oc1ccccc1/C=N\N=C\c1ccccc1O
inactive: dose: 50.0 mg/kg/injection, schedule: Q04DX002 (ip), vehicle: Klucel (hydroxypropylcellulose) (HPC) 93 % of control | dose: 100.0 mg/kg/injection, schedule: Q01DX001 (ip), vehicle: other 97 % of control | [24] 101 % of control | dose: 200.0 mg/kg/injection, schedule: Q01DX001 (ip), vehicle: other 103 % of control | [25] 112 % of control | dose: 400.0 mg/kg/injection, schedule: Q01DX001 (ip), vehicle: other 94 % of control

O=C(COc1ccc(Cl)cc1Cl)NCCBr
inactive: [26] 91 % of control | [27] 92 % of control | dose: 400.0 mg/kg/injection, schedule: Q01DX009 (ip), vehicle: Klucel (hydroxypropylcellulose) (HPC) 96 % of control

CCOC(=O)c1cnc(SC)nc1C(=O)OCC
inactive: dose: 50.0 mg/kg/injection, schedule: Q04DX003 (ip), vehicle: Klucel (hydroxypropylcellulose) (HPC) 102 % of control | [13] 94 % of control | [15] 102 % of control

CCOC(=O)COCc1ccccc1
inactive: dose: 25.0 mg/kg/injection, schedule: Q01DX009 (ip), vehicle: saline sonified 98 % of control | dose: 50.0 mg/kg/injection, schedule: Q01DX009 (ip), vehicle: saline sonified 93 % of control | dose: 100.0 mg/kg/injection, schedule: Q01DX009 (ip), vehicle: saline sonified 98 % of control | dose: 100.0 mg/kg/injection, schedule: Q04DX003 (ip), vehicle: saline sonified 97 % of control | dose: 176.0 mg/kg/injection, schedule: Q04DX003 (ip), vehicle: saline sonified 98 % of control | dose: 200.0 mg/kg/injection, schedule: Q04DX003 (ip), vehicle: saline sonified 90 % of control | dose: 264.0 mg/kg/injection, schedule: Q04DX003 (ip), vehicle: saline sonified 91 % of control | dose: 400.0 mg/kg/injection, schedule: Q04DX003 (ip), vehicle: saline sonified 104 % of control

O=C1OC(=O)C2C3c4ccccc4C(c4ccccc43)C12 (stereo not given)
inactive: [21] 103 % of control | [22] 98 % of control | [23] 96 % of control | [18] 98 % of control | [1] 114 % of control | [13] 103 % of control | [2] 98 % of control | [19] 88 % of control | [15] 90 % of control

O=C(Nc1ccc([N+](=O)[O-])cc1Cl)SCc1ccccc1
inactive: [12] 96 % of control | [26] 94 % of control and 101 % of control | [24] 95 % of control and 105 % of control | [13] 92 % of control | [14] 96 % of control | [27] 97 % of control and 106 % of control | [25] 103 % of control and 105 % of control | [15] 95 % of control | [16] 96 % of control | dose: 400.0 mg/kg/injection, schedule: Q04DX002 (ip), vehicle: Klucel (hydroxypropylcellulose) (HPC) 94 % of control and 95 % of control | [17] 92 % of control

C[N+](C)(C)CCOC(=O)c1ccccc1CBr
inactive: dose: 1.5 mg/kg/injection, schedule: Q04DX002 (ip), vehicle: other 98 % of control | dose: 3.0 mg/kg/injection, schedule: Q04DX002 (ip), vehicle: other 90 % of control | dose: 3.13 mg/kg/injection, schedule: Q01DX009 (ip), vehicle: saline 101 % of control | dose: 6.0 mg/kg/injection, schedule: Q04DX002 (ip), vehicle: other 105 % of control | dose: 6.25 mg/kg/injection, schedule: Q01DX009 (ip), vehicle: saline 97 % of control | dose: 6.25 mg/kg/injection, schedule: Q04DX003 (ip), vehicle: saline 105 % of control | dose: 12.5 mg/kg/injection, schedule: Q04DX003 (ip), vehicle: saline 91 % of control

COC(=O)C1=CCN(C)CC1
inactive: [18] 93 % of control | [19] 101 % of control | [20] 93 % of control

Reference: PubChem BioAssay AID248 (DTP/NCI, 2004)
